Reference: ChEMBL document CHEMBL1201862, “PubChem BioAssay data set” (2004)
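Briefly, cells in 96-well plates were exposed to five compound concentrations for 48 h, and endpoints were estimated by linear interpolation. GI50 is the concentration that inhibits growth by half.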 Calls of active or inactive are those of the source. Rule as the data show it: active = GI50 up to about 1.1 µM and inactive = higher.

Assays:
Test in all cases: growth of human tumour cells (NCI), 48 h
KM-20L2 = system: KM-20L2
HCT-116 = system: HCT-116
SW-620 = system: SW-620
HOP-62 = system: HOP-62
EKVX = system: EKVX
OVCAR-5 = system: OVCAR-5
OVCAR-8 = system: OVCAR-8
SNB-19 = system: SNB-19
A549 = system: A549
CCRF-CEM = system: CCRF-CEM
LOX IMVI = system: LOX IMVI
NCI-H23 = system: NCI-H23
HT-29 = system: HT-29
SN12C = system: SN12C
SNB-75 = system: SNB-75
M14 = system: M14
SR = system: SR

Measured: GI50

N=C(N)SCc1cccc([N+](=O)[O-])c1
inactive: KM-20L2 31.7 µM | HCT-116 26.5 µM | SW-620 36.6 µM | HOP-62 26.7 µM | EKVX 42.3 µM | OVCAR-5 48.2 µM | OVCAR-8 26.2 µM | SNB-19 > 10 µM | A549 39.7 µM | CCRF-CEM 27.7 µM | LOX IMVI 31.9 µM | NCI-H23 30.5 µM | HT-29 30.1 µM | SN12C 37 µM | SNB-75 30.3 µM

Cc1ccccc1NC(=O)c1c(C)oc2c1C(=O)c1ccccc1C2=O
inactive: KM-20L2 65.5 µM | HCT-116 32.1 µM | SW-620 19.7 µM | M14 20.9 µM | HOP-62 > 56.1 µM | EKVX > 72.6 µM | SR 26.1 µM | OVCAR-5 > 100 µM | OVCAR-8 41.5 µM | SNB-19 35.6 µM | A549 32.7 µM | CCRF-CEM 19.4 µM | LOX IMVI 16 µM | NCI-H23 29.7 µM | HT-29 35.9 µM | SN12C > 53.7 µM | SNB-75 39.7 µM

Cc1ccc(C(=O)C(C)N)cc1C (stereo unspecified)
inactive: KM-20L2 > 100 µM | HCT-116 > 100 µM | SW-620 > 100 µM | M14 > 100 µM | HOP-62 > 100 µM | EKVX > 100 µM | OVCAR-8 > 100 µM | SNB-19 > 100 µM | A549 > 100 µM | CCRF-CEM > 100 µM | LOX IMVI > 100 µM | NCI-H23 > 100 µM | HT-29 > 100 µM | SN12C > 100 µM | SNB-75 > 100 µM

CC(=O)OC1COC(N2C(=O)/C(=N\NC(N)=S)c3cc(Br)ccc32)C(OC(C)=O)C1OC(C)=O (stereo unspecified)
inactive: KM-20L2 > 100 µM | HCT-116 27.2 µM | SW-620 77.8 µM | M14 > 100 µM | HOP-62 98.6 µM | EKVX 56.1 µM | SR 19.5 µM | OVCAR-5 > 100 µM | OVCAR-8 49.1 µM | SNB-19 > 100 µM | A549 43.3 µM | CCRF-CEM 5.77 µM | LOX IMVI 38.9 µM | NCI-H23 67.9 µM | HT-29 > 100 µM | SN12C > 100 µM

CN1CCC23c4ccccc4NC1C21CCN(C)C3Nc2ccccc21
inactive: KM-20L2 > 239 µM | HCT-116 356 µM | SW-620 > 375 µM | HOP-62 > 375 µM | EKVX > 294 µM | OVCAR-5 > 375 µM | OVCAR-8 59.4 µM | SNB-19 > 375 µM | A549 > 375 µM | CCRF-CEM 137 µM | LOX IMVI > 375 µM | NCI-H23 > 375 µM | HT-29 > 375 µM | SN12C > 375 µM | SNB-75 > 303 µM

NC(=O)N/N=C/C(/C=N/NC(N)=O)[N+](=O)[O-]
inactive: KM-20L2 > 100 µM | HCT-116 > 100 µM | SW-620 > 100 µM | M14 > 100 µM | HOP-62 > 100 µM | EKVX > 100 µM | OVCAR-5 > 100 µM | SNB-19 > 100 µM | A549 > 100 µM | CCRF-CEM > 100 µM | LOX IMVI > 100 µM | NCI-H23 > 100 µM | HT-29 > 100 µM | SN12C > 100 µM | SNB-75 > 100 µM

CCCCCCCCCCCCCCCCCCOCC(O)CO (stereo unspecified) [BATILOL]
inactive: KM-20L2 19.1 µM | HCT-116 > 25 µM | SW-620 > 17 µM | HOP-62 14 µM | EKVX > 14.1 µM | OVCAR-5 > 25 µM | OVCAR-8 > 25 µM | SNB-19 > 25 µM | A549 4.32 µM | CCRF-CEM 10.7 µM | LOX IMVI > 21.9 µM | NCI-H23 > 25 µM | HT-29 14.5 µM | SN12C > 25 µM | SNB-75 9.48 µM

CCCN(CCCC(NC(C)=O)C(=O)NCc1ccccc1)C(=O)NCCCl (stereo unspecified)
inactive: KM-20L2 > 100 µM | HCT-116 > 100 µM | SW-620 > 100 µM | M14 > 100 µM | HOP-62 > 100 µM | EKVX > 100 µM | SR > 100 µM | OVCAR-8 > 100 µM | SNB-19 > 100 µM | A549 > 100 µM | CCRF-CEM > 100 µM | NCI-H23 > 100 µM | HT-29 > 100 µM | SN12C > 100 µM | SNB-75 > 100 µM

O=C1/C(=C/c2cccc([N+](=O)[O-])c2)COc2ccc(Br)cc21
inactive: KM-20L2 > 100 µM | HCT-116 32.6 µM | SW-620 42.4 µM | HOP-62 > 100 µM | EKVX > 100 µM | OVCAR-5 > 100 µM | OVCAR-8 > 100 µM | A549 > 100 µM | CCRF-CEM 13.6 µM | LOX IMVI 37.2 µM | NCI-H23 > 100 µM | HT-29 58.6 µM | SNB-75 55.7 µM
